These results are taken from patent publication US9403831B2, “Triazolopyrazine derivative and use thereof” (KOREA RESEARCH INSTITUTE OF CHEMICAL TECHNOLOGY, priority 2013, dated 2016).

Molecules are shown by their SMILES. Counter-ions that a name gives are not always drawn.

One assay addresses c-Met enzyme (Homo sapiens (Human), UniProt P08581). The assay is described as follows: c-Met kinase inhibitory activity (DELFIA time-resolved fluorescence). The class given is biochemical. Particulars: c-Met kinase activity reduced to 50%. How it is done: The c-Met kinase inhibitory activity was analyzed using dissociation enhanced lanthanide fluoro-immunoassay (DELFIA, Perkin Elmer), which is a kind of time-resolved fluorescence (TRF). […] of the compound prepared in the present invention, as a test compound, was put in a Greiner 96-well V-shaped bottom plate, and a tyrosin kinase buffer ([…]) mixed with a c-Met enzyme was added thereto, and then the enzyme and the test compound were stirred for 15 minutes, followed by culturing. An ATP solution ([…]) was added thereto to proceed with a kinase reaction at room temperature for 30 minutes, and then a 50 mM […] solution (EDTA, […]) was added to stop the reaction. After that, the reaction mixture was transferred to a plate coated with Streptavidin, followed by culturing under shaking. After 2 hours, the cultured material was washed three times with a PBS-T buffer (PBS 0.05% Tween 20).
The europium-labeled anti-phosphotyrosine antibody was diluted to 1:[…] of the diluent was added per well, followed by culturing under shaking. After 1 hour, the cultured material was washed three times with a PBS-T buffer (PBS 0.05% Tween 20).

Assay [1] concerns gastric cancer cell line Hs746T. Description: Cancer cell proliferation inhibitory test (SRB or MTS assay, 72 hours). The conditions noted are these: Homo sapiens, cancer cell (Hs746T) proliferation inhibition, culturing with compound for 72 hours. The class given is cell-based. How it is done:
The drug used in the test was diluted to a desired concentration as a test medium, and the final concentration of dimethyl sulfoxide was 0.5% or less.
All the cancer cell lines used in the test originated from the human body, and gastric cancer cell lines Hs746T and MKN-45 were used.
5×10^3 cells of Hs746T were dispensed to each well of the 96-well flat bottom micro-plate. MKN-45 was dispensed at 1×10^4 cells. The cells were cultured for 24 hours, so that the cells adhered to the bottom, and then the culture liquid was removed. The culture liquid containing each of the compounds of the present invention was added, followed by culturing for 72 hours. After the culturing with the compound was completed, the cytotoxicity was measured using protein stain reagent SRB or MTS assay.
Specifically, after the culturing with the compound of the present invention was completed, the cultured liquid was removed. Each well was treated with a cool TCA solution, and allowed to stand at 4° C. for 1 hour to fix cells. The TCA solution was removed, followed by drying at room temperature, and then a stain solution containing 0.4% SRB dissolved in 1% acetic acid solution was added, and then the mixture was allowed to stand for 30 minutes to stain cells. […] The absorbance of each well was measured at a wavelength range of 520 nm using an Eliza reader (micro-plate reader).
The drug cytotoxicity was measured from the OD values for the well added without the drug (C), each well added with the drug (T), and the well initially added with the drug (Tz): [(T−Tz)/(C−Tz)]×100 for […]; or [(T−Tz)/(Tz)]×100 for Tz>T.
The cancer cell inhibitory activity measurement using MTS assay was conducted as follows. Specifically, after the culturing with the compound of the present invention was completed, the PMS solution and MTS solution constituting the CellTiter 96® AQueous Non-Radioactive Cell Proliferation Assay product from Promega Co. were mixed, and 20 μL was put into each well. After the cells were placed in an incubator for 4 hours, and then taken out and allowed to stand at room temperature for 10 minutes.
(In general: Tetrazolium dyes change colour on reduction, which living cells bring about.)

Sequence of c-Met enzyme (P08581 25-1390): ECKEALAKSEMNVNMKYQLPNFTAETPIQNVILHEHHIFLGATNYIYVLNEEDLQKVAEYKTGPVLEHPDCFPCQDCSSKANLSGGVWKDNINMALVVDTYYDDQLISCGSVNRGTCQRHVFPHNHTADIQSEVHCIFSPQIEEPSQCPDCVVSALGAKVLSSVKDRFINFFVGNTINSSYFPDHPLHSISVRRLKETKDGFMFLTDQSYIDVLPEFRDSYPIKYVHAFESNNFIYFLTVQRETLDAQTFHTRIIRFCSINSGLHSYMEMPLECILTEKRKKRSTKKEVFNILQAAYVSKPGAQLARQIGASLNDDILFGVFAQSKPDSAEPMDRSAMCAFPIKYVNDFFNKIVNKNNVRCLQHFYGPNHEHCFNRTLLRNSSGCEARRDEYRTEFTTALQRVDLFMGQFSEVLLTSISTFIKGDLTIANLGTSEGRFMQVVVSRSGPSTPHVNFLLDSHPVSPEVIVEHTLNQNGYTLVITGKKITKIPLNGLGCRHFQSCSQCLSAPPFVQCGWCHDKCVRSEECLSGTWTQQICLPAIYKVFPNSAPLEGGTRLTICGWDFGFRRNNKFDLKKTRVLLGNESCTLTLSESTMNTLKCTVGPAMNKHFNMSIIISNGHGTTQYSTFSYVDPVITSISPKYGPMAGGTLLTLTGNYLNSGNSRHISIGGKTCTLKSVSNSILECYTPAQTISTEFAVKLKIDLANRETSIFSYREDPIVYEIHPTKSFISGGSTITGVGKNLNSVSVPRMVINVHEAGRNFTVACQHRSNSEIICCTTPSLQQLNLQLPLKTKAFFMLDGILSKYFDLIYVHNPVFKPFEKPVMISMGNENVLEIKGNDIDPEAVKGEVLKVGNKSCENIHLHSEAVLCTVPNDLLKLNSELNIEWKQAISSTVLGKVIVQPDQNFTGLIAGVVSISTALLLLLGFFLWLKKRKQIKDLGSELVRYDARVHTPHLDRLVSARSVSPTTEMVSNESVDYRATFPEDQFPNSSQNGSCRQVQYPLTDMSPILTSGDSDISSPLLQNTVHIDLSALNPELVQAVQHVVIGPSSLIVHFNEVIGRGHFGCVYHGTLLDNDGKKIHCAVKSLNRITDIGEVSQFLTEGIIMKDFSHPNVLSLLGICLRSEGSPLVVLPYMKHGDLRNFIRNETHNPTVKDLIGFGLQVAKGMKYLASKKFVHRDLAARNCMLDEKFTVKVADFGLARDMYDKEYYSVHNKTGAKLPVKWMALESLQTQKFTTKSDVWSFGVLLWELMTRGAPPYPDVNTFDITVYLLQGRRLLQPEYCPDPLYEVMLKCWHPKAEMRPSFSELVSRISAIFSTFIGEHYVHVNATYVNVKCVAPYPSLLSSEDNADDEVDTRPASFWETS

Consider `Cn1cc(-c2cnc3nnn(CC4CCCN(c5ncc(-c6cnn(CCO)c6)cn5)C4)c3n2)cn1` (centres unmarked) [Chemical formula 36, 2-(3-(2-(3-((6-(1-methyl-1H-pyrazol-4-yl)-1H-[1,2,3]triazolo[4,5-b]pyrazin-1-yl)methyl)piperidin-1-yl)pyrimidin-5-yl)-1H-pyrazol-1-yl)ethanolhydrochloride], for which the IC50 (in general, the point on the concentration scale where inhibition reaches its midpoint) against c-Met enzyme was 2 nM; in assay [1], 3.8 nM.
Consider `Cn1cc(-c2cnc3nnn(C[C@@H]4CN(c5ncc(C6CCN(CCO)CC6)cn5)CCO4)c3n2)cn1` [Chemical formula 21, (S)-2-(4-(2-(2-((6-(1-methyl-1H-pyrazol-4-yl)-1H-[1,2,3]triazolo[4,5-b]pyrazin-1-yl)methyl)morpholino)pyrimidin-5-yl)piperidin-1-yl)ethanol], for which the results for the IC50 (at c-Met enzyme; in assay [1]) were 5 nM and 5.6 nM, respectively.
For the molecule `CN1CC=C(c2cnc(N3CCCC(Cn4nnc5ncc(-c6cnn(C)c6)nc54)C3)nc2)CC1` (centres unmarked) [Chemical formula 34, 1-((1-(5-(1-methyl-1,2,3,6-tetrahydropyridin-4-yl)pyrimidin-2-yl)piperidin-3-yl)methyl)-6-(1-methyl-1H-pyrazol-4-yl)-1H-[1,2,3]triazolo[4,5-b]pyrazine], the IC50 at c-Met enzyme is 3 nM; in assay [1], 15 nM.
Regarding `Cn1cc(-c2cnc3nnn(C[C@@H]4CN(c5ncc(-c6cnn(CCO)c6)cn5)CCO4)c3n2)cn1` [Chemical formula 11, (S)-2-(4-(2-(2-((6-(1-methyl-1H-pyrazol-4-yl)-1H-[1,2,3]triazolo[4,5-b]pyrazin-1-yl)methyl)morpholino)pyrimidin-5-yl)-1H-pyrazol-1-yl)ethanol hydrochloride], the IC50 against c-Met enzyme was determined as 3 nM; in assay [1] it was 0.93 nM.
On the same counts, the results for `Cn1cc(-c2cnc3nnn(C[C@@H]4CN(c5ncc(C6=CCN(CCO)CC6)cn5)CCO4)c3n2)cn1` [Chemical formula 12, (S)-2-(4-(2-(2-((6-(1-methyl-1H-pyrazol-4-yl)-1H-[1,2,3]triazolo[4,5-b]pyrazin-1-yl)methyl)morpholino)pyrimidin-5-yl)-5,6-dihydropyridin-1(2H)-yl)ethanol] are 4 nM and 0.96 nM.
For `Cn1cc(-c2cnc3nnn(CC4CCCN(c5ncc(-c6cnn(C7CCNCC7)c6)cn5)C4)c3n2)cn1` (centres unmarked) [Chemical formula 37, 6-(1-methyl-1H-pyrazol-4-yl)-1-((1-(5-(1-(piperidin-4-yl)-1H-pyrazol-3-yl)pyrimidin-2-yl)piperidin-3-yl)methyl)-1H-[1,2,3]triazolo[4,5-b]pyrazinehydrochloride], the figures for the IC50 (at c-Met enzyme; in assay [1]) were 2 nM and 1.3 nM, respectively.
For the molecule `Cn1cc(-c2cnc3nnn(CC4CCCN(c5ncc(C6=CCN(CCO)CC6)cn5)C4)c3n2)cn1` (centres unmarked) [Chemical formula 35, 2-(4-(2-(3-((6-(1-methyl-1H-pyrazol-4-yl)-1H-[1,2,3]triazolo[4,5-b]pyrazine-1-yl)methyl)piperidin-1-yl)pyrimidin-5-yl)-5,6-dihydropyridin-1(2H)-yl)ethanol], the 50% inhibitory concentration (IC50) against c-Met enzyme stood at 3 nM; in assay [1], 2 nM.
On to `N#Cc1cc(-c2cnc3nnn(C[C@@H]4CN(c5ncc(-c6cnn(CCO)c6)cn5)CCO4)c3n2)ccc1F` [Chemical formula 32, (S)-2-fluoro-5-(1-((4-(5-(1-(2-hydroxyethyl)-1H-pyrazol-4-yl)pyrimidin-2-yl)morpholine-2-yl)methyl)-1H-[1,2,3]triazolo[4,5-b]pyrazin-6-yl)benzonitrile], for which the IC50 against c-Met enzyme was 1 nM; in assay [1], 0.14 nM.
Regarding `Cn1cc(-c2cnc3nnn(C[C@@H]4CN(c5ncc(-c6cnn(C7CCNCC7)c6)cn5)CCO4)c3n2)cn1` [Chemical formula 4, (S)-2-((6-(1-methyl-1H-pyrazol-4-yl)-1H-[1,2,3]triazolo[4,5-b]pyrazin-1-yl)methyl)-4-(5-(1-(piperidin-4-yl)-1H-pyrazol-4-yl)pyrimidin-2-yl)morpholine HCl salt], the IC50 was 11 nM against c-Met enzyme and 1.2 nM in assay [1].
Take `Cn1cc(-c2cnc3nnn(C[C@@H]4CN(c5ncc(-c6ccc(OCCN7CCOCC7)cc6)cn5)CCO4)c3n2)cn1` [Chemical formula 14, (S)-2-((6-(1-methyl-1H-pyrazol-4-yl)-1H-[1,2,3]triazolo[4,5-b]pyrazin-1-yl)methyl)-4-(5-(4-(2-morpholinoethoxy)phenyl)pyrimidin-2-yl)morpholine]: the values for the IC50 (against c-Met enzyme; in assay [1]) were 14 nM and 4.1 nM, respectively.
